US11369654B2, “Application method of Dendrobium candidum in preparing medicine for treating hypertension” (Hangzhou Danhe Pharmaceutical CO., Ltd., priority 2017, dated 2022)
“And” between values parts separate entries of the source, which are not always exact repeats. Equal entries are not always repeated.

Tests used:
[1] = test system: Spontaneously Hypertensive Rats (SHR); assay: Experiment 5: antihypertensive effect of the sample of Example 2 on SHR; type: in vivo, rat
Description: Rats: Spontaneously Hypertensive Rats (SHR), Wistar rats are used as normal controls.
Rat Blood Pressure Measurement: BP-98A Non-invasive Tail Artery Blood Pressure Meter, Japan Soft Rotation Co., Ltd
(§1) Group therapy is described in the following description. Blood pressure and body weight are measured and grouped after one week of adaptive feeding in all rats. […] Eight rats in each group are treated for 2 weeks.
(§2) The following description discussed with the blood pressure measurement. The rats are preheated at 38° C. for 5-10 minutes to avoid blood flow in the tail of the rat. The blood pressure of the rats is measured three times in a waking and quiet state, and the average value of three times was used as the blood pressure of the rats. Blood pressure is measured twice a week, once 2 hours after administration and once 24 hours after administration, to observe the immediate antihypertensive effect and after 24 hours antihypertensive effect (and the peak-to-valley ratio).
(§3) The following description discusses with the trough-peak ratio calculation of depressurization amplitude. The difference of blood pressure before treatment minus 24 hours after administration is the trough of the range of blood pressure reduction, which is the lowest point before the next administration; the difference of blood pressure before treatment and 2 hours after administration is the peak value of blood pressure reduction, that is, the maximum point of blood pressure reduction after administration. Valley value of depressurization amplitude divided by peak value of depressurization amplitude is equal to valley-peak ratio of depressurization amplitude.

[2] = test system: Spontaneously Hypertensive Rats (SHR); assay: Experiment 4: antihypertensive effect of the sample of Example 1 on SHR; type: in vivo, rat
Description: Rats: Spontaneously Hypertensive Rats (SHR), Wistar rats were used as normal controls.
Rat Blood Pressure Measurement: BP-98A Non-invasive Tail Artery Blood Pressure Meter, Japan Soft Rotation Co., Ltd.
as §1
as §2, with “describes” for “discussed with”, “is” for “was”
as §3, with “discusses” for “discusses with”

[3] = 2 h after administration, treatment for 1 week, medium dose 0.8 g/kg crude drug, amlodipine 0.5 mg/kg
[4] = 2 h after administration, treatment for 2 weeks, medium dose 0.8 g/kg crude drug, amlodipine 0.5 mg/kg
[5] = 24 h after administration, treatment for 1 week, medium dose 0.8 g/kg crude drug, amlodipine 0.5 mg/kg
[6] = 24 h after administration, treatment for 2 weeks, medium dose 0.8 g/kg crude drug, amlodipine 0.5 mg/kg
[7] = before treatment, medium dose group 0.8 g/kg crude drug, amlodipine group 0.5 mg/kg
[8] = treatment for 1 week, medium dose 0.8 g/kg crude drug, amlodipine 0.5 mg/kg
[9] = treatment for 2 weeks, medium dose 0.8 g/kg crude drug, amlodipine 0.5 mg/kg

CCOC(=O)C1=C(COCCN)NC(C)=C(C(=O)OC)C1c1ccccc1Cl (centres unmarked) [Amlodipine, amlodipine besylate]
diastolic blood pressure [1, 3]: 146.8 mmHg | systolic blood pressure [1, 3]: 178.2 mmHg | diastolic blood pressure [1, 4]: 148.5 mmHg | systolic blood pressure [1, 4]: 180.5 mmHg | diastolic blood pressure [1, 5]: 157.1 mmHg | systolic blood pressure [1, 5]: 203.5 mmHg | diastolic blood pressure [1, 6]: 157.6 mmHg | systolic blood pressure [1, 6]: 205.6 mmHg | diastolic blood pressure [1, 7]: 159.6 mmHg | systolic blood pressure [1, 7]: 212.7 mmHg and 212.7 ± 6.87 mmHg | 2-hour hypotensive amplitude (peak of systolic blood pressure reduction) [1, 8]: 34.5 mmHg | 24-hour hypotensive amplitude (trough of systolic blood pressure reduction) [1, 8]: 9.2 mmHg | valley-peak ratio of Systolic Blood Pressure Reduction [1, 8]: 0.27 | 2-hour hypotensive amplitude (peak of systolic blood pressure reduction) [1, 9]: 32.2 mmHg | 24-hour hypotensive amplitude (trough of systolic blood pressure reduction) [1, 9]: 7.1 mmHg | valley-peak ratio of Systolic Blood Pressure Reduction [1, 9]: 0.22 | diastolic blood pressure [2, 3]: 145.9 mmHg | systolic blood pressure [2, 3]: 176.7 ± 7.42 mmHg | diastolic blood pressure [2, 4]: 144.8 mmHg | systolic blood pressure [2, 4]: 178.7 ± 5.64 mmHg | diastolic blood pressure [2, 5]: 156.5 mmHg | systolic blood pressure [2, 5]: 202.6 mmHg | diastolic blood pressure [2, 6]: 157.3 mmHg | systolic blood pressure [2, 6]: 204.9 mmHg | diastolic blood pressure [2, 7]: 158.2 mmHg | systolic blood pressure [2, 7]: 211.7 ± 7.57 mmHg and 211.7 mmHg and 211.7 ± 17.57 mmHg | 2-hour hypotensive amplitude (peak of systolic blood pressure reduction) [2, 8]: 35.0 mmHg | 24-hour hypotensive amplitude (trough of systolic blood pressure reduction) [2, 8]: 9.1 mmHg | valley-peak ratio of Systolic Blood Pressure Reduction [2, 8]: 0.26 | 2-hour hypotensive amplitude (peak of systolic blood pressure reduction) [2, 9]: 33.0 mmHg | 24-hour hypotensive amplitude (trough of systolic blood pressure reduction) [2, 9]: 6.8 mmHg | valley-peak ratio of Systolic Blood Pressure Reduction [2, 9]: 0.21
